Results on three compounds are retold here after patent publication US12403132B2, “Methods of treating bone marrow failure syndromes and compositions for use in the same” (The Board of Trustees of the Leland Stanford Junior …, priority 2020, dated 2025).

This assay deals with CD235+ erythroblasts. As to the kind of experiment: CD235+ erythroid expansion of differentiating human cord blood CD34+ progenitors (shRPS19/shRPL11 DBA models), flow cytometry. To be noted: for CD235+ erythroid expansion in RPS19-insufficiency, % of control: 6.6% of controls (shLuc) untreated; for increase of erythroid expansion in RPS19-insufficiency: concentrations published to block TGFβ signaling, 15 days; for fold increase of erythroid expansion in response to SD208: 5 μM. The format is cell-based. As to the method: FIG. 7. […] (a) Differentiating cord blood CD34+ progenitors were transduced with shRNA against luciferase or RPS19 and treated with inhibitors at working concentrations for TGFβ inhibition every three days. Cells were counted and CD235+ erythroid cells were assessed by flow cytometry after 15 days. (b) Prior to flow cytometry, 5000 cells per group were taken from differentiating cultures for NLK kinase assay. (c) CD34+ progenitors were transduced with shRNA against luciferase or RPS19 and non-targeting or siRNA against NLK. After sorting, samples were split into two groups and either treated with vehicle or SD208 every three days. After 15 days cells were counted and subject to flow cytometry to compare the expansion of maturing CD235+ erythroid (left panel) and CD11b+ myeloid cells (right panel). (d) Cord Blood CD34+ progenitors were transduced with shRNA against luciferase (left panel) or RPS19 (right panel) differentiated in erythroid media for 15 days alone, or in the presence of SB525334 or SD208 at 5 μM. Cells were counted and CD235+ erythroid (D—upper) and CD11b+ myeloid cell (D—lower) percentages were determined by flow cytometry. The number of erythroid or myeloid cells is expressed as a percentage of the number of that lineage with no cytokine or drug treatment.
FIG. 8. […] Human cord blood CD34+ progenitors were transduced with lentivirus co-expressing GFP with shRNA against luciferase (shLuc), RPS19 (shRPS19) or RPL11 (shRPL11). After 36 hours cells GFP+ cells were differentiated in erythroid media in the presence or absence of 5 μM SD208 for 15 days. Cells were counted and assessed for cell surface expression of CD235. (a) The percentage of CD235+ cells was multiplied by the cell count and values were compared as a percentage of untreated controls. (b) Normalizing values relative to untreated RPS19-insufficiency progenitors facilitates direct comparison of erythropoiesis between untreated and SD208-treated cultures. (c) Approximately 3000 cells were removed from differentiating treatments at day 6 and NLK activity was assessed. Values were normalized to reflect a fold induction relative to untreated controls. (d) Lin-Kit+ hematopoietic progenitors were obtained from three mouse embryos expressing tetracycline-inducible shRNA against RPS19 at day E14.5 or three untreated mice, and thee mature RPL11^+/+ or three mature RPL11^+/lox mice treated with tamoxifen for eight weeks. Cells were grown in the presence or absence of doxycycline and/or SD208 for eight days prior to counting and assessing for ter119 surface expression. Values were expressed as a percentage relative to untreated controls (e) and directly comparing the effect of SD208 on erythropoiesis in ribosomal-insufficiency by expressing values relative to untreated ribosome-insufficient cultures (f). At day 5 approximately 3000 cells were assayed for NLK kinase assay (g). CD34+ HSPCs were isolated from three healthy control and three DBA patient mononuclear bone marrow aspirates by magnetic bead sorting and differentiated in the presence or absence of SD208 for 14 days. After counting the total cell population, the ratio of CD235+ erythroblasts was determined by flow cytometry and number of CD235+ erythroblasts calculated. This was expressed as a percentage of the average number of erythroid cells present in untreated healthy controls. (h) The direct effect of SD208 on erythroid expansion in DBA patient samples was calculated following normalization of untreated DBA patient samples as 1-fold, (i) At day five, 3000 cells from each of the differentiating cultures was analyzed for NLK activity by kinase assay and are expressed as a fold induction relative to untreated healthy controls.

The structures appear in SMILES notation.

Take `Cc1cccc(-c2nn3c(c2-c2ccnc4ccc(C(N)=O)cc24)CCC3)n1` [Galunisertib]: the “CD235+ erythroid expansion in RPS19-insufficiency, % of control” value (“CD235+ erythroid expansion … % of control” below) amounted to 21% and the “increase of erythroid expansion in RPS19-insufficiency” value (“increase … in RPS19-insufficiency” for short) amounted to 3.2 fold.

Take `NC(=O)c1ccc(-c2nc(-c3ccc4c(c3)OCO4)c(-c3ccccn3)[nH]2)cc1` [SB431542]: the “CD235+ erythroid expansion … % of control” value was 21% and the “increase … in RPS19-insufficiency” value was 3.2 fold.

As for `Fc1ccc(Cl)cc1-c1nc(Nc2ccncc2)c2nccnc2n1` [SD208], the “CD235+ erythroid expansion … % of control” value was found to be 41.5% and the “increase … in RPS19-insufficiency” value came out at 6.3 fold. Under “RPL11-insufficiency”, the “fold increase of erythroid expansion in response to SD208” value was 6.9 fold. Moreover, the “erythroid expansion, % of untreated controls” value (RPL11-insufficiency, SD208 5 μM, 5.8% untreated) was found to be 36.7%. Moreover, the “fold increase of erythroid expansion in response to SD208” value (RPS19-insufficiency) is 4.7 fold. Also, the “erythroid expansion, % of untreated controls” value (RPS19-insufficiency, SD208 5 μM, 8.7% untreated) turned out to be 38.7%. For the same compound, the “RPS19-insufficient erythroid expansion, fold of non-TGFβ-treated cells” value (TGFβ-treated, SD208 5 μM) came to 4.1 fold.
